Measured values from patent EP4635969A1, “NOVEL GLUCOCORTICOID, METHOD FOR PREPARING SAME, AND USE THEREOF” (Tianjin Pharmaceutical Biotechnology Co., Ltd., priority 2022, dated 2024).

Experiments:
[1] = Determination of stability in plasma in vitro, human plasma (LC-MS/MS); format: in vitro ADME; details: same experimental conditions (human and mouse plasma)
How it was run: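 Compound at 1 µM final in human or mouse plasma (N = 2) at 37 °C; aliquots taken at 0 and preset time points into ice-cold precipitant with internal standard. Remaining compound measured semi-quantitatively by LC-MS/MS as analyte/internal-standard peak-area ratio.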

asthma model mice = assay: Anti-asthma pharmacodynamic experiment: airway hyperresponsiveness (Penh) after methacholine challenge; format: in vivo, female BALB/c mice; details: compared with the model group
[2] = test system: inflammatory cytokines IL-6 and IL-12; assay: Anti-asthma pharmacodynamic experiment: inflammatory cytokines in bronchoalveolar lavage fluid (ELISA); format: in vivo, female BALB/c mice; details: compared with the model group
Protocol: Pharmacological Example 4: Pharmacodynamic Experiment on Anti-Asthma
The suspensions were stored at room temperature protected from light until use.
Positive control drug: Budesonide Suspension for Inhalation (specification: 2 mL: 1 mg; AstraZeneca Inc.; Lot No. : 327392) was diluted with injection-grade sodium chloride solution to 0.3 mg/ml as the positive control drug, and stored at room temperature protected from light until use.
Sixty female BALB/c mice underwent a one-week adaptive feeding period. Ten mice were randomly selected as the blank control group, while 50 mice were selected to establish asthma models.
From days 21 to 23 after sensitization, the mice in the model group and drug administration group were exposed to a 30-minute aerosol challenge with 5% OVA, while the mice in the blank control group were exposed to normal saline aerosol for the same duration.
At the end of airway hyperresponsiveness testing in mice, the mice were euthanized by cervical dislocation and fixed on a dissection tray. The abdomens and thoracic cavities of the mice were opened, and the skin and excess tissues of the neck were excised to expose the trachea of the mice. A small incision was made transversely on the trachea with a small scissors. A pre-treated 1 mL syringe needle was inserted and fastened with surgical thread. A 1 mL syringe was used to slowly inject 0.5 mL of pre-chilled phosphate-buffered saline (PBS) into the lungs of the mice, followed by slow aspiration. Each mouse was lavaged once, and a total of approximately 0.4 ml of lavage fluid was collected. The bronchoalveolar lavage fluid was centrifuged at 3000 rpm for 5 min. After centrifugation, the supernatant was aliquoted, and the levels of inflammatory cytokines IL-6 and IL-12 in the bronchoalveolar lavage fluid were determined using ELISA kits.
Statistical analysis was performed using SPSS software. Measurement data were expressed as mean ± standard deviation. One-way ANOVA was used for intergroup comparisons. For data with homogeneous variance, LSD test was used; for data with heterogeneous variance, Dunnett-t test was used. A value of P < 0.05 was considered statistically significant.

uveitis model rats = assay: Anti-uveitis pharmacodynamic experiment (LPS model): ocular pathological score; format: in vivo, male SD rats; details: compared with the model group
[3] = test system: inflammatory cytokines (TNF-α); assay: Anti-uveitis pharmacodynamic experiment (LPS model): inflammatory cytokines in aqueous humor (ELISA); format: in vivo, male SD rats; details: values not given
How it was run: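 Male SD rats given uveitis by single subplantar injection of LPS (Salmonella) 1 mg/kg, then bilateral ocular dosing of 40 µL 5 mg/5 mL ophthalmic suspension three times daily for 2 days.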

[4] = test system: dry eye syndrome model New Zealand rabbits; assay: Dry eye syndrome experiment (benzalkonium chloride model): tear secretion test with phenol red cotton threads; format: in vivo, male New Zealand White rabbits; details: compared with the model group
Protocol: (§1) Positive control drug: Fluorometholone Eye Drops (specification: 5 mL/5 mg; Santen Pharmaceutical (CHINA) Co., Ltd.; Lot No.: 1FM6625) was used as the positive control drug and stored at room temperature protected from light until use.
Thirty male New Zealand White rabbits (conventional grade) were prepared. Six rabbits were randomly selected as the blank control group, and the remaining animals were administered 0.1% benzalkonium chloride to the left eye twice daily (morning and evening) , 10 µL/animal each time. On day 6 of modeling, tear secretion was measured using phenol red cotton threads to determine whether the model was successfully established. […] During the administration, all animals except the blank control group were administered 10 µL of 0.1% benzalkonium chloride to the left eye once daily to maintain dry eye symptoms..
• Test time: D3, D7, D15; • Test animals: All animals were tested before grouping; all enrolled surviving animals were tested after administration; • Test method: Tear secretion was measured using phenol red cotton threads. The tear secretion test paper was folded and placed at the middle and outer 1/3 of the rabbit palpebral conjunctival sac for 1 min. The test paper was then removed, observed, and recorded for its wetting length. The test was repeated 3 times, and the values were averaged.
(§2) The normality and homogeneity of variance were tested by Levene's test. If there was no statistical significance (P > 0.05), one-way analysis of variance (ANOVA) was used for statistical analysis. If ANOVA was statistically significant (P ≤ 0.05), LSD test (parametric method) was used for comparative analysis. If the variance was heterogeneous (P ≤ 0.05), Kruskal-Wallis test was used. If the Kruskal-Wallis test was statistically significant (P ≤ 0.05), Dunnett's test (nonparametric method) was used for comparative analysis.

[5] = test system: dry eye syndrome model New Zealand rabbits; assay: Dry eye syndrome experiment (benzalkonium chloride model): corneal fluorescein sodium staining; format: in vivo, male New Zealand White rabbits; details: compared with the model group
Protocol: Pharmacological Example 6: Therapeutic Pharmacodynamic Experiment on Dry Eye Syndrome in New Zealand Rabbits
as §1
Thirty male New Zealand White rabbits (conventional grade) were prepared. Six rabbits were randomly selected as the blank control group, and the remaining animals were administered 0.1% benzalkonium chloride to the left eye twice daily (morning and evening) , 10 µL/animal each time. […] During the administration, all animals except the blank control group were administered 10 µL of 0.1% benzalkonium chloride to the left eye once daily to maintain dry eye symptoms..
• Test time: D3, D7, D15; • Test animals: All animals were tested before grouping; all enrolled surviving animals were tested after administration; • Test method: 2 µL of 1% Fluorescein sodium was dropped into the conjunctival sac. After 5 s, the excess fluorescein was rinsed with 0.9% normal saline. The conjunctival staining was observed under a slit lamp with cobalt blue diffused light.
as §2

[6] = test system: inflammatory bowel disease model rats; assay: Inflammatory bowel disease experiment (TNBS model): macroscopic injury score of the colon; format: in vivo; details: for inflammatory response on the intestinal surface / intestinal symptoms: compared with the model group
How it was run: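 Colitis in rats was induced by intrarectal TNBS 50 mg/kg (20 mg/mL in 50% ethanol) after 24 h fasting. Dosing began 1 h before induction, then daily for 5 days. On day 5 colon was scored macroscopically for adhesion, obstruction, wall thickening, congestion and necrosis, with ANOVA/Dunnett or Kruskal-Wallis/Mann-Whitney statistics.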

Row | Structure (SMILES) | plasma instability [1] | Effects on airway hyperresponsiveness (Penh values) in mice (asthma model mice) | Effects on inflammatory cytokines in bronchoalveolar lavage fluid of mice [2] | ocular abnormalities / ocular pathological score (uveitis model rats) | inflammatory cytokines in aqueous humor [3] | tear secretion [4] | inflammatory response on the ocular surface / ocular symptoms [5] | inflammatory response on the intestinal surface / intestinal symptoms [6] | Macroscopic injury score ([6]; colon, day 5 after TNBS, 2 mg/kg once a day (compounds intraintestinally, dexamethasone by gavage))
1 | C[C@]12C=CC(=O)C=C1[C@@H](F)C[C@H]1[C@@H]3C[C@H]4OC(c5ccc(CSC6CCOC6=O)cc5)O[C@@]4(C(=O)OCF)[C@@]3(C)C[C@H](O)[C@@]12F (stereo partly drawn) [Compound 36, Fluoromethyl (2S,6aS,6bR,7S,8aS,8bS,11aR,12aS,12bS)-2,6b-difluoro-7-hydroxy-6a,8a-dimethyl-4-oxo-10-(4-( ((2-oxotetrahydrofuran-3-yl)thio)methyl)phenyl)-1,2,4,6a,6b,7,8,8a,11a,12,12a,12b-dodecahydro-8bH-naphtho[2',1':4,5]indeno[1,2-d][1,3]dioxole-8b-carboxylate] | exhibited the characteristic of plasma instability | significantly decreased the Penh values in mice | pharmacological effects similar to those of compound 23 | significantly improved ocular abnormalities | suppressed inflammatory cytokines in aqueous humor | significantly increased the tear secretion | significantly alleviated the ocular symptoms in dry eye syndrome model New Zealand rabbits | significantly alleviated the intestinal symptoms in inflammatory bowel disease model rats | 
2 | C[C@]12C=CC(=O)C=C1[C@@H](F)C[C@H]1[C@@H]3C[C@H]4OC(c5ccc(CSC6CCOC6=O)cc5)O[C@@]4(C(=O)SCF)[C@@]3(C)C[C@H](O)[C@@]12F (stereo partly drawn) [Compound 34, S-(Fluoromethyl) (2S,6aS,6bR,7S,8aS,8bS,11aR,12aS,12bS)-2,6b-difluoro-7-hydroxy-6a,8a-dimethyl-4-oxo-10-(4-( ((2-oxotetrahydrofuran-3-yl)thio)methyl)phenyl)-1,2,4,6a,6b,7,8,8a,11a,12,12a,12b-dodecahydro-8bH-naphtho[2',1':4,5]indeno[1,2-d][1,3]dioxole-8b-carbothioate] | exhibited the characteristic of plasma instability | significantly decreased the Penh values in mice | pharmacological effects similar to those of compound 23 | significantly improved ocular abnormalities | suppressed inflammatory cytokines in aqueous humor | significantly increased the tear secretion | significantly alleviated the ocular symptoms in dry eye syndrome model New Zealand rabbits | significantly inhibited the inflammatory response on the intestinal surface | 5.00 ± 0.95
3 | C[C@]12C=CC(=O)C=C1CC[C@H]1[C@@H]3C[C@H]4OC(c5ccc(CSC6CCOC6=O)nc5)O[C@@]4(C(=O)CO)[C@@]3(C)C[C@H](O)[C@@]12F (stereo partly drawn) [Compound 47, (6aS,6bR,7S,8aS,8bS,11aR,12aS,12bS)-6b-Fluoro-7-hydroxy-8b-(2-hydroxyacetyl)-6a,8a-dimethyl-10-(6-(((2-oxotetrahydrofuran-3-yl)thio)methyl)pyridin-3-yl)-1,2,6a,6b,7,8,8a,8b,11a,12,12a,12 b-dodecahydro-4H-naphtho[2',1':4,5]indeno[1,2-d][1,3]dioxol-4-one] | exhibited the characteristic of plasma instability | significantly decreased the Penh values in mice | pharmacological effects similar to those of compound 23 | significantly improved ocular abnormalities | suppressed inflammatory cytokines in aqueous humor | significantly increased the tear secretion | significantly alleviated the ocular symptoms in dry eye syndrome model New Zealand rabbits | significantly alleviated the intestinal symptoms in inflammatory bowel disease model rats | 
4 | C[C@]12C=CC(=O)C=C1[C@@H](F)C[C@H]1[C@@H]3C[C@H]4OC(c5ccc(CSC6CCOC6=O)cc5)O[C@@]4(C(=O)SCC#N)[C@@]3(C)C[C@H](O)[C@@]12F (stereo partly drawn) [Compound 35, S-(Cyanomethyl) (2S,6aS,6bR,7S,8aS,8bS,11aR,12aS,12bS)-2,6b-difluoro-7-hydroxy-6a,8a-dimethyl-4-oxo-10-(4-( ((2-oxotetrahydrofuran-3-yl)thio)methyl)phenyl)-1,2,4,6a,6b,7,8,8a,11a,12,12a,12b-dodecahydro-8bH-naphtho[2',1':4,5]indeno[1,2-d][1,3]dioxole-8b-carbothioate] | exhibited the characteristic of plasma instability | significantly decreased the Penh values in mice | pharmacological effects similar to those of compound 23 | significantly improved ocular abnormalities | suppressed inflammatory cytokines in aqueous humor | significantly increased the tear secretion | significantly alleviated the ocular symptoms in dry eye syndrome model New Zealand rabbits | significantly alleviated the intestinal symptoms in inflammatory bowel disease model rats | 
5 | C[C@]12C=CC(=O)C=C1[C@@H](F)C[C@H]1[C@@H]3C[C@H]4OC(c5ccc(CSC6CCOC6=O)nc5)O[C@@]4(C(=O)CO)[C@@]3(C)C[C@H](O)[C@@]12F (stereo partly drawn) [Compound 46, (25,6aS,6bR,78,8a8,8bS,11aR,12a8,12b8S)-2,6b-Difluoro-7-hydroxy-8b-(2-hydroxyacetyl)-6a,8a-dimethyl-10-(6-(((2-oxotetrahydrofuran-3-yl)thio)methyl)pyridin-3-yl)-1,2,6a,6b,7,8,8a,8b,11a,12, 12a,12b-dodecahydro-4H-naphtho[2',1':4,5]indeno[1,2-d][1,3]dioxol-4-one] | exhibited the characteristic of plasma instability | significantly decreased the Penh values in mice | pharmacological effects similar to those of compound 23 | significantly improved ocular abnormalities | suppressed inflammatory cytokines in aqueous humor | significantly increased the tear secretion | significantly alleviated the ocular symptoms in dry eye syndrome model New Zealand rabbits | significantly alleviated the intestinal symptoms in inflammatory bowel disease model rats | 
